Reference: patent US11046753B2, “Antibody composition and buffer system therefor” (INNOVA BIOSCIENCES LTD, priority 2013, dated 2021)
“Also recorded” adds a separate entry of the source.

What was measured:
[1] = Carbodiimide (EDC)-mediated conjugation of goat anti-rabbit IgG to carboxylated gold nanoparticles in presence of additive, read by lateral flow assay
Procedure: Molecules were tested initially at pH 5 in EDC-mediated reactions with carboxylated gold particles (InnovaCoat GOLD, Innova Biosciences). Potentially interesting molecules from this screening exercise were further evaluated in NHS ester reactions, isothiocyanate reactions and thiolation reactions involving iminothiolane. All of these reactions are widely used in the antibody conjugation field and all would be expected to suffer from interference in the presence of glycine.
Lateral flow test strips (4 mm wide) were prepared from nitrocellulose membrane (Millipore Hi Flow plus 90) striped with goat anti-rabbit IgG (test line) and biotin-BSA (control line). Strips were housed in plastic cartridges and samples of gold conjugate (80 ul) were added to the sample pad. Cartridges were allowed to stand for 30 min and then read using a ESE-Quant GOLD reader—QIAGEN. Each sample was spiked with a fixed amount of streptavidin-gold (Innova biosciences—Product code: 250-0200), which binds to the control line, to check that each test strip had run correctly and that test line data was valid.
10 μg of goat anti-rabbit IgG (GAR) was used per ml of coated 40 nm nanoparticles with carboxyl functionality (InnovaCoat GOLD, Innova Biosciences) at […] in the presence of additives at 50 mM final concentration. Typically reactions were set up with the following additions: 40 μl of 40 nm InnovaCoat (carboxylated) gold nanopartcles, were incubated 5 minutes with 4 μl 0.1 mg/ml GAR, 20 μl water, and 80 μl of 100 mM MES buffer containing 100 mM of additive, pH 5.0. Next, 16 μl of 1 mM EDC was added and after 10 min incubation at 22° C., 20 μl of 10×TBS/1% Tween20 and 20 μl of water was added to give 2 OD conjugate.
Gold conjugates were mixed when required with rabbit IgG ((final concentration 50 ng/ml) at 22° C. Conjugates were 0.2 OD final concentration (i.e. 1/10 dilution from stock conjugates). Samples were run in triplicate on lateral flow test strips as described in Example 1.

[2] = 25° C., cited from earlier work; for pKa (COOH): Table 1; for pKa of buffer: neutralisation / catch / wash buffers
[3] = Effect of additives on the thiolation reagent 2-iminothiolane (thiol release, DTNB, A405); settings: 50 mM additive, pH 8.0, 30 minutes
Procedure: 20 μl of 2 mM 2-iminothiolane was added to each well and mixed quickly and the absorbance values were read at 405 nm every minute for 30 minutes using a Tecan Infinite M200 plate reader with i-Control 1.4 software. […] In control reaction, there is a steady linear increase in absorbance as the reagent is hydrolysed by water. […] The rising baseline can be attributed to the known sensitivity of 2-iminothiolane to hydrolysis at alkaline pH values.

[4] = Degree of ionisation of the acid group at pH 5 (Henderson-Hasselbach); type: physicochemical
[5] = Lightning-Link fluorescein conjugation of goat anti-rabbit IgG in presence of additive, fluorescence assay; settings: 50 mM additive; for % of control: conjugate 1/100 dilution, additive-free control 100%
Procedure: (§1) Black 96-well plates (Greiner Bio-One (code 655077)) were incubated with 50 ul rabbit IgG (1 ug/well) overnight at 4° C. The plates were blocked with TBS/0.1% BSA for 1 hour at room temperature and washed five times with TBS (wash buffer). Fluorescent antibody conjugates were serially diluted in TBS/0.1% BSA and 50 ul aliquots were added to wells in triplicate. After incubation at room temperature for 1 hour, the plate was washed five times and fluorescence emission was read in using a Tecan Infinite M200 plate reader with i-Control 1.4 software with the appropriate excitation/emission settings (fluorescein, 490 nm/535 nm; phycoeythrin, 535 nm/575 nm. Fluorescence data was plotted as a function of conjugate dilution. To compare results for additives tested in different experiments the data were transformed into a percentage of a control value (i.e. the signal for conjugate prepared in the absence of any test additive).
Reactions were carried out according to the manufacturer's standard protocol except that the additives were included at up to 50 mM concentration in conjugation reactions of Goat-anti-rabbit IgG using fluorescein Lightning-Link kit (product code 707-0010, Innova Biosciences, UK). Conjugates were tested according to the protocol described in Example 2.

[6] = Lightning-Link phycoerythrin conjugation of goat anti-rabbit IgG in presence of tricine, fluorescence assay
Procedure: as §1
The method was as described in Example 4, except that the Goat anti-rabbit IgG was conjugated to the fluorescent protein phycoerythrin (PE) using a Lightning-Link PE conjugation kit (703-0005). Tricine has little effect on Lightning-Link PE conjugation reactions in the range of concentrations tested. In this case the conjugate prepared at the highest concentration of tricine (50 mM) gave a signal that was 91% of control value in the absence of additive.

[7] = additive 50 mM final, MES pH 5.0, EDC, lateral flow test line signal

Row | Compound | % of Signal [1, 7] | interference in carbodiimide-mediated antibody-gold nanoparticle conjugation reaction ([1]; pH 5, EDC) | pKa (COOH) [2] | further results
1 | C[C@H](N)C(=O)O [Alanine] | 100% | little or no effect | – | –
2 | CCC(N)C(=O)O (racemic) [DL-2 Aminobutyric Acid] | 101% | – | pKa = 2.29 | interference in carbodiimide-mediated antibody-gold nanoparticle conjugation reaction ([1]; pH 5, EDC, listed as DL-2-aminobutyric acid): little or no effect; interference in carbodiimide-mediated antibody-gold nanoparticle conjugation reaction ([1]; pH 5, EDC, listed as DL-2 amino butyric acid): no interference; pKa of the carboxyl (acid) group [2]: 2.29
3 | NC(CO)(CO)CO [Tris] | 19% | severe interference | pKa1 = 8.07 | –
4 | Citric Acid | 0% | severe interference | – | release of thiols from 2-iminothiolane versus control ([3]; listed as Citric acid): no effect; release of thiols from 2-iminothiolane versus control ([3]; listed as citric acid): no increase in this rate
5 | O=C(O)c1cccnc1 [Nicotinic Acid] | 73% | significant interference; also recorded: partial interference | pKa1 = 2.201 | pKa of the carboxyl (acid) group [2]: 2.2
6 | O=C(O)c1c(O)cc(O)cc1O [2,4,6-Trihydroxy-benzoic Acid, 2,4,6-trihydroxybenzoic acid] | 0% | severe interference | pKa1 = 1.68 | –
7 | NCCC(=O)O [Beta-Alanine] | 92% | little or no effect | pKa = 3.6 | –
8 | CNCC(=O)O [N-Methylglycine (Sarcosine), N-methylglycine] | 93% | little or no effect | pKa1 = 2.36 | –
9 | [N-]=[N+]=[N-].[Na+] [0.01% NaN3, sodium azide] | 26% | caused interference | pKa1 = 4.8 | –
10 | Phosphate | – | caused interference | – | –
11 | O=C(O)CCC(=O)O [Succinic Acid] | 0% | severe interference | – | –
12 | NCCCC(=O)O [GABA (Υ-Aminobutyric Acid), gamma-amino butyric acid] | 26% | significant interference; also recorded: significantly inhibits | pKa1 = 4.23 | acid groups ionised (COO−) [4]: 85.5%
13 | O=S(=O)(O)CCN1CCN(CCS(=O)(=O)O)CC1 [PIPES, piperazine-N,N′-bis(2-ethanesulfonic acid)] | – | – | – | pKa of buffer [2]: 6.76
14 | O=C(O)C(Cl)(Cl)Cl [TCA, trichloroacetic acid] | 0% | severe interference | – | acid groups ionised (COO−) [4]: essentially fully ionised
15 | O=C(O)c1ccccn1 [2-Picolinic Acid, 2-pyridinecarboxylic acid] | 100% | – | pKa1 = 5.52 | interference in carbodiimide-mediated antibody-gold nanoparticle conjugation reaction ([1]; pH 5, EDC, listed as 2-picolinic acid): little or no effect; interference in carbodiimide-mediated antibody-gold nanoparticle conjugation reaction ([1]; pH 5, EDC, listed as picolinic acid): without effect; interference in Lightning-Link fluorescein conjugation reaction [5]: modest interference; % of control [5]: 83%; pKa of the amine group [2]: 5.52
16 | O=C(O)CNC(CO)(CO)CO [Tricine, N-tris(hydroxymethyl)methylglycine] | 105% | little or no effect | pKa1 = 2.3 | pKa of the carboxyl (acid) group [2]: ~2.3; % of control ([6]; 50 mM tricine): 91%; interference in Lightning-Link phycoerythrin conjugation reaction ([6]; up to 50 mM): little effect; also recorded: modest degree of interference
17 | O=C(O)[C@@H]1CCCN1 [Proline] | 94% | little or no effect | – | interference in Lightning-Link fluorescein conjugation reaction [5]: significant interference; % of control [5]: 53%
18 | CC(C)(C)C(=O)O [Pivalic Acid] | 53% | significant interference but not totally abolishing the conjugation reaction; also recorded: partial inhibition | – | acid groups ionised (COO−) [4]: ~50%
19 | CC(=O)[O-].[Na+] [Na Acetate, sodium acetate] | – | – | – | % of Signal ([1]; pH 5): 37%; interference in carbodiimide-mediated antibody-gold nanoparticle conjugation reaction ([1]; pH 5): significant interference but not totally abolishing the conjugation reaction
20 | O=C(O)C1CCCCC1 [Cyclohexane-carboxylic acid, cyclohexane carboxylic acid] | 71% | significant interference but not totally abolishing the conjugation reaction | – | –
21 | CN(C)CC(=O)O [N,N- Dimethylglycine, N,N-dimethylglycine] | 110% | little or no effect | pKa1 = 2.06 | interference in Lightning-Link fluorescein conjugation reaction [5]: little or no effect; % of control [5]: 96%
22 | CC(=O)O [acetic acid] | – | greater interference in carbodiimide reactions than glycine | – | –
23 | C[N+](C)(C)CC(=O)[O-] [Glycine betaine, N,N,N-trimethylglycine] | 96% | little or no effect | pKa = 1.83 | release of thiols from 2-iminothiolane versus control ([3]; listed as betaine): no increase in this rate; release of thiols from 2-iminothiolane versus control ([3]; listed as glycine betaine): without effect; interference in Lightning-Link fluorescein conjugation reaction [5]: little or no effect; % of control [5]: 98%; pKa of the carboxyl (acid) group [2]: 1.8
24 | O=S(=O)(O)CCCCN1CCN(CCO)CC1 [HEPBS, N-(2-Hydroxyethyl)piperazine-N′-(4-butanesulfonic acid)] | – | – | – | pKa of buffer [2]: 8.3
